According to PubChem BioAssay (NCI):
Where “and” joins values, the source holds several entries; their conditions need not be identical. Equal entries are not always repeated.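 Tested at 5 concentrations; 48 h exposure; 96-well plates; endpoints linearly interpolated, else capped at highest concentration. Definition used: TGI = concentration required for complete inhibition of growth.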

Assays:
Experiment in all cases: DTP human tumour cell line panel, 48 h
[1] = test system: A549 NSCLC
[2] = test system: NCI-H522 lung
[3] = test system: SF-268 CNS
[4] = test system: HCT-15 colon
[5] = test system: MALME-3M melanoma
[6] = test system: CAKI-1 renal
[7] = test system: RXF 393 renal
[8] = test system: SK-MEL-5 melanoma
[9] = test system: IGROV1 ovarian
[10] = test system: UACC-62 melanoma

| SMILES | TGI [1] | TGI [2] | TGI [3] | TGI [4] | TGI [5] | TGI [6] | TGI [7] | TGI [8] | TGI [9] | TGI [10] |
| --- | --- | --- | --- | --- | --- | --- | --- | --- | --- | --- |
| COc1ccc(C(c2c(O)c3ccccc3n(-c3ccccc3)c2=O)c2c(O)c3ccccc3n(-c3ccccc3)c2=O)cc1 | > 100 µM | > 100 µM | > 100 µM | > 100 µM | > 100 µM | > 100 µM | > 100 µM | > 100 µM |  |  |
| Cc1ccc(NC=O)c(-c2c(N)[nH]c(=S)[nH]c2=O)c1 | > 100 µM | > 100 µM | > 100 µM | > 100 µM | > 100 µM | > 100 µM | > 100 µM | > 100 µM | > 100 µM | > 100 µM |
| CC(=O)OC12C3C4C1C1C2C3C41OC(C)=O (centres undefined) | > 100 µM | > 100 µM | > 100 µM | > 100 µM |  | > 100 µM | > 100 µM | > 100 µM | > 100 µM | > 100 µM |
| Cc1c2ccncc2cc2c1[nH]c1ccccc12 | 15.1 µM | 18.9 µM | 32.3 µM | 28.1 µM | 20.5 µM | 10.5 µM | 7.35 µM | 11.2 µM | 65.2 µM | 20.7 µM |
| CCCC(CCC(N)=O)(CCC(N)=O)[N+](=O)[O-] | > 100 µM | > 100 µM | > 100 µM | > 100 µM | > 100 µM | > 100 µM | > 100 µM | > 100 µM | > 100 µM | > 100 µM |
| CC(C)(C)OC(=O)N(CCCCNC(=O)OCc1ccccc1)CCCNC(=O)OCc1ccccc1 | > 100 µM | 19.4 µM | > 100 µM | > 100 µM |  |  | > 100 µM | 22.5 µM | > 100 µM | > 100 µM |
| O=C(NCCN1CCOCC1)c1cn2c(ccc3sc4ccccc4c(=O)c32)n1 | > 100 µM | > 100 µM | > 100 µM | > 100 µM | > 100 µM | > 100 µM | > 100 µM | 60.6 µM | > 100 µM |  |
| CN(Cc1cnc2nc(N)nc(N)c2n1)c1ccc(C(=O)N[C@@H](CCC(=O)O)C(=O)O)cc1 | > 250 µM | 155 µM and > 250 µM | 206 µM and > 250 µM | > 250 µM | > 250 µM | 200 µM and > 250 µM | 215 µM and > 250 µM | 179 µM and > 250 µM | 212 µM and > 250 µM | 41.4 µM and > 250 µM |
| COc1ccc(-n2c(N)c(C#N)[nH]c2=O)cc1 | > 10 µM | > 10 µM | > 10 µM | > 10 µM | > 10 µM |  | > 10 µM | > 10 µM | > 10 µM | > 10 µM |
| CN(C)c1ccc(C=NCC2CCCN3CCCCC23)cc1 (centres undefined) | > 100 µM | > 100 µM | > 100 µM | > 100 µM | > 100 µM | > 100 µM | > 100 µM | > 100 µM | > 100 µM | > 100 µM |
| Cc1ccc2c(c1)C(=O)c1nc(C)ccc1C2=O | > 100 µM | 74.2 µM | > 100 µM | 48.1 µM | 24.7 µM | 76.9 µM | > 100 µM | 19.7 µM | 66.5 µM | 67.3 µM |
| O=C(/C=C/c1cccc(Oc2ccccc2)c1)NCc1ccc(C(=O)NCc2ccccc2)cc1 | > 100 µM | > 100 µM | > 100 µM | > 100 µM | > 100 µM | > 100 µM | 41 µM | > 100 µM | > 100 µM | > 100 µM |
| CC1=NC2=Nc3nc(C)cc[n+]3CN2C=C1 | > 100 µM | > 100 µM | > 100 µM | > 100 µM | > 100 µM | > 100 µM | > 100 µM | > 100 µM | > 100 µM | > 100 µM |
| CC(NC(=O)NC(C)(C)C)NC(=O)C(N)CC(=O)O (centres undefined) | > 100 µM | > 100 µM | > 100 µM | > 100 µM | > 100 µM | > 100 µM | > 100 µM | > 100 µM | > 100 µM | > 100 µM |
| CN(C)c1ccc(/C=C2\N=C(NNc3ccccc3)NC2=O)cc1 | > 100 µM | 57.1 µM | > 100 µM | > 100 µM | > 100 µM | > 100 µM | 78.9 µM |  | 80.6 µM | > 100 µM |
| CCOC(=O)c1nnsc1N/N=C\c1ccc([N+](=O)[O-])cc1 | > 100 µM | > 100 µM | > 100 µM | > 100 µM | > 100 µM |  | > 100 µM | > 100 µM | > 100 µM | > 100 µM |
| NC1=C(NC(=O)Cc2ccccc2F)C(=O)c2ccccc2C1=O | > 100 µM | > 100 µM | > 100 µM | > 100 µM | 50.9 µM | > 100 µM | 56.5 µM |  | > 100 µM | > 100 µM |
| COc1cc(C(C)O)c(S(=O)(=O)CC(C)O)nn1 (centres undefined) | > 100 µM | > 100 µM |  | > 100 µM | > 100 µM | > 100 µM | > 100 µM | > 100 µM | > 100 µM | > 100 µM |
| C=C1C(=O)O[C@H]2C[C@@]3(COC(C)=O)C=COC=C(COC(=O)C(C)C)C3CC12 (some centres undefined) | > 100 µM | > 100 µM |  | > 100 µM | > 100 µM | > 100 µM | > 100 µM | > 100 µM | > 100 µM | 41.2 µM |
| CC1(C)OC2[C@@H](CO[C@@]3([C@@H](O)CCO)OC(C)(C)O[C@@H]23)O1 (some centres undefined) |  | > 100 µM | > 100 µM | > 100 µM |  | > 100 µM | > 100 µM | > 100 µM | > 100 µM | > 100 µM |
| O=C1CC(c2ccccc2)C2(C(=O)NC(=S)NC2=O)C(c2ccccc2)C1 (centres undefined) |  | > 75 µM | > 75 µM | > 75 µM | > 75 µM | > 75 µM | > 75 µM | > 75 µM | > 75 µM | > 75 µM |
| CCOC(=O)c1c(N=P(c2ccccc2)(c2ccccc2)c2ccccc2)nnc(-c2ccccc2)c1-c1ccccc1 | > 100 µM | > 100 µM | > 100 µM | > 100 µM | > 100 µM |  | > 100 µM | > 100 µM | > 100 µM | > 100 µM |
